Columns and labels:
[1] = test system: HT-29 cell line; assay: In vitro tumor cell proliferation assay (3D spheroid, 3D CTG), HT-29; type: cell-based; details: Homo sapiens
Protocol: (§1) Cell suspensions containing 1.5×10^3 total cells in 100 μL culture media were deposited in each well of an ultra-low attachment 96 well plate. Plates were incubated at 37° C. with […] and 5% CO2 for 72 h to allow for spheroid formation. […] ZN-c3 and/or Encorafenib compounds in DMSO were deposited into the plates using an automated drug dispenser at the indicated concentrations. Total DMSO content was normalized to 0.1% of the total volume in all assay conditions. Plates were sealed with breathable film to reduce evaporation and incubated at 37° C. with […] and 5% CO2 for 192 h. After 192 h, plates were removed from the incubator and allowed to come to room temperature. 100 μL room temperature 3D CTG reagent (Promega, Cat #G9683) was added to each well. Plates were agitated at 520 revolutions per minute (rpm) for 5 mins, allowed to stabilize protected from light for 30 mins, then luminescence was measured on an M5e plate reader (SpectraMax). Percent viability was calculated as percentage of cell viability relative to DMSO-only vehicle control.

[2] = test system: LS411N cell line; assay: In vitro tumor cell proliferation assay (3D spheroid, 3D CTG), LS411N; type: cell-based; details: Homo sapiens, LS-411N, 192 h
Protocol: as §1

[3] = test system: HT-29 CDX model (BRAFmt CRC); type: in vivo, BALB/c nude mice; details: ZN-c3 60 mg/kg QD p.o., encorafenib 15 mg/kg QD p.o., cetuximab 15 mg/kg BIW i.p.; for TGI: 21- or 22-day study
Protocol: (§2) CDX Models: 6-8 week old BALB/c nude mice were inoculated subcutaneously on the right flank with the single cell suspension of 95% viable tumor cells (5×10^6) in 100 μL RPMI 1640 without serum (COLO205), 95% viable tumor cells (2×10^6) in 100 μL McCoy's 5a Medium Modified without serum (HT-29), or 95% viable tumor cells (2×106) in 100 μL RPMI 1640 and Matrigel mixture (1:1 ratio) without serum (LS411N).
(§3) Grouping and treatments started when the mean tumor volume reached about 220 mm^3 (with individual tumors in the range of 200-240 mm^3). Vehicle animals were treated daily with 10 mL/kg HP-β-CD p.o. (oral gavage). Encorafenib was prepared weekly in 0.5% carboxymethyl cellulose: 0.5% Tween 80:99% deionized water and dosed daily (QD) at the indicated doses orally (p.o.) (see Tables 4 and 5 for dosage amounts). ZN-c3 was prepared daily in 20% HP-B-CD and dosed daily at the indicated doses p.o. (see Tables 4 and 5 for dosage amounts). […] Body weight and tumor volume of all animals was measured twice weekly throughout the studies that were 21 or 22 days or 3 weeks in duration (for CDX models HT-29 and LS411N) or that were 28 days or 4 weeks in duration (for PDX models CRC769, CRC563 and CTG-1009). The measurement of tumor size was performed with a caliper and the tumor volume (mm3) was estimated using the formula: TV=a×b2/2 throughout the study, where “a” and “b” is long and short diameters of a tumor, respectively. Animals were euthanized when their individual tumor burden exceeded 2000 mm^3 or is in a continuing deteriorating condition or close to a comatose state.

[4] = test system: LS411N CDX model (BRAFmt CRC); type: in vivo, BALB/c nude mice; details: ZN-c3 60 mg/kg QD p.o., encorafenib 20 mg/kg QD p.o., cetuximab 15 mg/kg BIW i.p.; for TGI: 21- or 22-day study
Protocol: as §2, §3

[5] = test system: CRC563 PDX model (BRAFmt CRC); type: in vivo, female athymic nude Foxn1nu mice; details: ZN-c3 60 mg/kg QD p.o., encorafenib 20 mg/kg QD p.o., cetuximab 20 mg/kg BIW i.p., 28-day study
Protocol: (§4) PDX Models: Tumor fragments (CRC769, CRC563, CTG-1009) were brought out of cryopreservation and implanted into female athymic nude Foxn1nu mice. Fragments were allowed to grow then excised once an appropriate volume was reached. A tumor slurry was made of 50% freshly harvested tumors minced to small tumor fragments in PBS and 50% Matrigel. The tumor slurry was injected subcutaneously into 6-8 week old female athymic nude Foxn1nu mice on the flank.
as §3

[6] = test system: CRC769 PDX model (BRAFmt CRC); type: in vivo, female athymic nude Foxn1nu mice; details: ZN-c3 60 mg/kg QD p.o., encorafenib 20 mg/kg QD p.o., cetuximab 20 mg/kg BIW i.p., 28-day study
Protocol: as §4, §3

[7] = test system: CTG-1009 PDX model (BRAFmt CRC); type: in vivo, female athymic nude Foxn1nu mice; details: ZN-c3 60 mg/kg QD p.o., encorafenib 20 mg/kg QD p.o., cetuximab 15 mg/kg BIW i.p., 28-day study
Protocol: as §4, §3

[8] = molecular target: WEE1 (Homo sapiens, UniProt P30291); details: as provided in WO 2019/173082; cited from earlier work
Sequence of WEE1 (P30291 whole entry, species assumed): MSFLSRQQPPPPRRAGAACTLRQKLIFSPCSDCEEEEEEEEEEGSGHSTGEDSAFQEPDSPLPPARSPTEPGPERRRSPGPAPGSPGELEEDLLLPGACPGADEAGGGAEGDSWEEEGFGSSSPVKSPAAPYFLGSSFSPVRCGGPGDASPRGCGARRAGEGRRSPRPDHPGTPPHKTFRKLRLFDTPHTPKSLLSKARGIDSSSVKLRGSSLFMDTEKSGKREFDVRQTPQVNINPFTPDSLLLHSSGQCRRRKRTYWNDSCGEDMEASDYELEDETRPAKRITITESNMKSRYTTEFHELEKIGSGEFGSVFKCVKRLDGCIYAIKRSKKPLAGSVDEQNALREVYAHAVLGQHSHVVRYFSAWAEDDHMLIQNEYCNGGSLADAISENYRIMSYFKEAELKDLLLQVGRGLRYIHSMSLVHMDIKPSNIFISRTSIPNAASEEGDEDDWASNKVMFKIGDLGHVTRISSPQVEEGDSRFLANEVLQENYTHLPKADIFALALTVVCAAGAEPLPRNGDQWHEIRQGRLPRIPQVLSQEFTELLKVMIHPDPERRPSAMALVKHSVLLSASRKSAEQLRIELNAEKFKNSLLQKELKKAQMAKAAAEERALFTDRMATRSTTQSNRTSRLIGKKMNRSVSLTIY

[9] = HT-29 spheroids, 192 h, 250 nM ZN-c3, 1.6 nM encorafenib, relative to 0.1% DMSO
[10] = LS411N spheroids, 250 nM ZN-c3, 25 nM encorafenib, relative to 0.1% DMSO

| Compound | inhibition at 0.3 µM ([1]; HT-29, 192 h) [%] | inhibition at 0.25 µM [1, 9] [%] | inhibition at 0.35 µM [2] [%] | inhibition at 0.25 µM [2, 10] [%] | Tumor Vol. Change from D 14-D 21 (%) [3] [%] | TGI [3] | Tumor Vol. Change from D 14-D 21 (%) [4] [%] | TGI [4] | TGI [5] | TGI [6] | TGI [7] | activity against WEE1 [8] | inhibition at 0.01 µM ([1]; HT-29, 192 h) [%] | inhibition at 0.0016 µM [1, 9] [%] | inhibition at 0.025 µM [2, 10] [%] |
| --- | --- | --- | --- | --- | --- | --- | --- | --- | --- | --- | --- | --- | --- | --- | --- |
| C=CCn1c(=O)c2cnc(Nc3ccc(N4CCN(C)CC4)cc3)nc2n1-c1ccc2c(n1)[C@@](O)(CC)CC2 [ZN-c3, (R)-2-allyl-1-(7-ethyl-7-hydroxy-6,7-dihydro-5H-cyclopenta[b]pyridin-2-yl)-6-((4-(4-methylpiperazin-1-yl)phenyl)amino)-1,2-dihydro-3H-pyrazolo[3,4-d]pyrimidin-3-one] | 34.5 | 39 | 21.6 | 27.5 | 36.3 | 15.0 | 35.8 | 69.0 | 43.4 | 19.0 | 51.2 | active against WEE1 |  |  |  |
| COC(=O)N[C@@H](C)CNc1nccc(-c2cn(C(C)C)nc2-c2cc(Cl)cc(NS(C)(=O)=O)c2F)n1 [Encorafenib, encorafenib, reference compound] |  |  |  |  | 36.9 | 42.6 | 36.6 | 64.6 |  | 69.0 | 80.0 |  | 75.8 | 39.5 | 28.3 |
